Experimental data reported in patent US9622995B2, “Treatment of disorders associated with G protein-coupled receptor 35 (GPR35)” (TEMPLE UNIVERSITY—OF THE COMMONWEALTH SYSTEM OF HIGHER …, priority 2009, dated 2017).
Read-outs that look alike come from different tables or passages of the source.

Assays:
[1] = molecular target: T1, GPR35a (Homo sapiens, UniProt Q9HC97, S294R); test: β-arrestin2-GFP redistribution/aggregation in UGPR35β cells; assay type: cell-based; set-up: expressed in transfected cells; settings: for activation of GPR35 (distribution of βarr2-GFP different from basal state): concentrations up to 30 μM; for potency as GPR35 agonist, in words: compared with the binaphthyl compounds
T1 sequence (Q9HC97 whole entry S294R): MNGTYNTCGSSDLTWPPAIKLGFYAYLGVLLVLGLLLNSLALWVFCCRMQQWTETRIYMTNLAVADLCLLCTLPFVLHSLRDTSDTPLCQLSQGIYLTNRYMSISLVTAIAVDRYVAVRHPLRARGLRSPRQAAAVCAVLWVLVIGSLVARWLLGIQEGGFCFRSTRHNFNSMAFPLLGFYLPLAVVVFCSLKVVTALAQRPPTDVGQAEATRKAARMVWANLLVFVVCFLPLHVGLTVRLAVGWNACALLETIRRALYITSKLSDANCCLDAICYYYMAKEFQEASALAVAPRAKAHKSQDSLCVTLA
Text: This cellular assay utilizes the intracellular β-arrestin protein as a reporter of receptor activity. […] Upon agonist-mediated GPCR activation, β-arrestins rapidly redistribute en masse to ligand-activated plasma membrane receptors (on the other hand, β-arrestins remain in the cytosol upon antagonist binding to the receptor). Activated GPCR/β-arrestin complexes will concentrate in clathrin-coated pits and/or internal vesicles where most GPCRs normally undergo internalization. At this juncture, the β-arrestin either (i) dissociates and returns to the cytoplasm, or (ii) further redistributes with the receptor into an intracellular endosomal vesicle, depending on the receptor type. It is the agonist-induced redistribution of β-arrestin-GFP into progressively smaller compartments (cytosolic compartment>plasma membrane>coated pit>endosomal compartment) that enables imaging of receptor activation.
This cell line is herein referred to as UGPR35β. Selected cells were maintained at 200 μg/ml G418® and 100 μg/ml Zeocin® at 37° C. and 5% CO2.
U20S cells expressing HA-GPR35a/βarr2-GFP (also known as UGPR35β cells) were plated in a 24-well plate onto coverslips that were coated with poly-D-lysine (0.02 mg/ml; Sigma-Aldrich, St. Louis, Mo., USA) for 1 hour. Cells were maintained at 37° C., 5% CO2 until ready for experiment (90% confluent). Cells were washed once with Hanks' balanced salt solution (HBSS, Cellgro, Mediatech, Inc, Manassas, Va., USA) comprising CaCl2 0.14 g/L, KCl 0.4 g/L, KH2PO4 0.06 g/L, MgSO4 0.097 g/L, NaCl 8 g/L, Na2HPO4 0.047 g/L, NaHCO3 0.35 g/L, and D-glucose 1.0 g/L. For receptor activation, agonist-evoked redistribution of βarr2-GFP was measured by applying the drug for 40 minutes. For measuring the effects of antagonist, agonist and antagonist were co-applied.
Cells were then fixed with 4% paraformaldehyde for 20 minutes at room temperature, followed by three washes with HBSS.
βarr2-GFP aggregates were identified by a wavelet-based, Microsoft Windows-compatible computer program written in the MatLab programming environment. A program algorithm extracts from two dimensional images those pixels that generate objects of interest that fall within a predetermined range of sizes and intensities and that are embedded among widely varying local backgrounds (L. Barak, available from the Duke University GPCR Assay Bank). Concentration-effect curves for agonist-mediated receptor activation were analyzed by non-linear regression techniques using GraphPad Prism 4.0 software (GraphPad) and data were fitted to sigmoidal dose-response curves to obtain EC50 or IC50 values. Statistical analysis was performed using one-way analysis of variance (ANOVA) followed by Dunnett's post-test or two-tailed unpaired student t test. P values of <0.05 are considered significant.
A prototypical U2OS osteosarcoma cell line that permanently expresses β-arrestin-GFP and N-terminal triple HA-tagged human GPR35a was used to screen ligands for agonism or antagonism against the GPR35 receptor. […] Endogenous receptors are invisible to the assay because there are too few endogenous receptors of any type compared to the number of β-arrestin molecules in the cell to provide a measurable response.
Upon agonist-mediated GPCR activation, β-arrestins rapidly redistribute en masse to ligand-activated plasma membrane receptors, and then the activated GPCR/arrestin complexes concentrate in clathrincoated pits and/or internal vesicles.
Concentration response curves for β-arrestin2 aggregation were obtained for compounds of interest. For this study, UGPR35β cells were treated with different concentrations of a compound of interest and images of the cells (acquired in triplicate in three or more independent experiments) were analyzed for fluorescence.

[2] = molecular target: T1, GPR35a; settings: 3 μM; data not shown
[3] = molecular target: GPR35 (Homo sapiens, UniProt Q9HC97, S294R); settings: UGPR35β cells
GPR35, sequence (Q9HC97 whole entry S294R): as above
Experimental: Loss of cell surface receptor may be evaluated by methods such as On-Cell Western analysis of the cells under treatment.
In a non-limiting example, a cell line that expresses N-terminal triple HA-tagged GPR35 receptor is used. After contacting the cells with a candidate GPR35 agonist and incubating the system for a set period of time, the cells are incubated with an anti-HA mouse antibody, followed by incubation with a fluorophore-labeled anti-mouse antibody. The resulting observed fluorescence is then used to assess the level of GPR35 receptor on the cell surface.
The previously described U2OS cells expressing HA-GPR35a/βarr2-GFP (also known as UGPR35β cells) were seeded and grown until confluence on the bottoms of a 96-well plate. […] Cells were washed once with Hanks' balanced salt solution (HBSS, Cellgro, Mediatech, Inc, Manassas, Va., USA) prior to appropriate drug treatment and then fixed with 4% formaldehyde for 20 minutes at room temperature. This step was followed by three washes with PBS for 5 minutes each.
The secondary antibody (IRDye 800 conjugated anti-mouse IgG, Rockland, Gilbertsville, Pa.; 1:1000 in LI-COR Odyssey® blocking buffer) was then added to the treated cells and incubated for 1 hour at room temperature protected from light.
Cells grown on coverslips were incubated over ice for 40 minutes with a 1:500 dilution of mouse monoclonal anti-HA antibody in blocking buffer (3% BSA in PBS), followed by three consecutive washes with PBS. […] Antibody-labeled cells were treated with agonist alone or in combination with antagonist for 40 minutes at 37° C., and the cells were then imaged.
On-Cell western analysis was performed using a LI-COR odyssey infra-red imager to quantify ligand potency to induce loss of cell surface receptor.
For each concentration of the compound of interest, the intensity of labeling was measured using immunofluorescence. The readings were plotted against the compound concentrations, yielding binding curves that allowed the calculation of EC50 values (FIGS. 6C-E).

[4] = concentration response analysis, read-out: β-arrestin response (EC50)

Compound	activation of GPR35 (distribution of βarr2-GFP different from basal state) [1]	also measured
5-(4-chloro-3-methylphenyl-1-[(4-methylphenyl)methyl]-N-[(1S,2S,4R)-1,3,3-trimethylbicyclo[2.2.1]hept-2-yl]-1H-pyrazole-3-carboxamide [SR144528]	None of the compounds at concentrations up to 30 μM activated GPR35	–
CCCCCCC(C)(C)c1cc(O)c2c(c1)OC(C)(C)C1CCC(C)CC21 (stereo not shown) [AM4056, 1-hydroxy-1′,1′-dimethylheptylhexahydrocannabinol]	None of the compounds at concentrations up to 30 μM activated GPR35	–
CCCCCCC(C)(C)c1ccc([C@@H]2C[C@H](O)CC[C@H]2CCCO)c(O)c1 [CP55,940, 2-[(1R,2R,5R)-5-hydroxy-2-(3-hydroxypropyl)cyclohexyl]-5-(2-methyloctan-2-yl)phenol]	None of the compounds at concentrations up to 30 μM activated GPR35	–
O=C(O)c1cc2cc(Br)ccc2c(Cc2c(O)c(C(=O)O)cc3cc(Br)ccc23)c1O [Compound 3, 7,7′-dibromo-pamoic acid]	–	EC50 [1, 4]: 0.169 µM
O=C(O)c1cc2ccccc2c(-c2c(O)c(C(=O)O)cc3ccccc23)c1O [Compound 4, 1,1′-binaphthyl-2,2′-diol-3,3′-dicarboxylic acid]	–	EC50 [1, 4]: 0.286 µM
O=C(O)c1cc([N+](=O)[O-])ccc1NCCCc1ccccc1 [Compound 6, 5-Nitro-2-(3-phenylpropylamino)-benzoic acid]	–	EC50 ([1]; mean (95% confidence interval in brackets in the text), read-out: EC50 for β-arrestin2 aggregation): 4.3 µM
O=C(O)c1cc2cc(Br)ccc2cc1O [Compound 7, 7-bromo-3-hydroxy-2-naphthoic acid]	–	potency as GPR35 agonist, in words [1]: much less potent; EC50 [1, 4]: 6.9 µM
O=C(O)c1cc2ccccc2cc1O [Compound 8, 3-hydroxy-2-naphthoic acid]	–	potency as GPR35 agonist, in words [1]: much less potent; EC50 [1, 4]: 86 µM
C=C(C)[C@@H]1CCC(C)=C[C@H]1c1c(C)cc(O)cc1O [Compound O-1602, 5-methyl-4-[(1R,6R)-3-methyl-6-(1-methyethenyl)-2-cyclohexen-1-yl]-1,3-benzenediol]	None of the compounds at concentrations up to 30 μM activated GPR35	–
N#CC(=C(N)Sc1ccccc1N)C(C#N)=C(N)Sc1ccccc1N [Compound U0126, 1,4-diamino-2,3-dicyano-1,4-bis(2-aminophenylthio)-butadiene]	–	effect on ERK1/2 activation [2]: inhibited ERK1/2 activation; effect on pamoic acid-induced ERK activation [2]: abolished pamoic acid-induced ERK activation
CCCCCCC(C)(C)c1cc(O)c2c(c1)OC(C)(C)[C@@H]1CC=C(CO)C[C@@H]21 [HU-210, (6aR,10aR)-9-(hydroxymethyl)-6,6-dimethyl-3-(2-methyloctan-2-yl)-6a,7,10,10a-tetrahydrobenzo[c]chromen-1-ol]	None of the compounds at concentrations up to 30 μM activated GPR35	–
CCCn1c(C)c(C(=O)c2cccc3ccccc23)c2ccccc21 [JWH-015, (2-methyl-1-propyl-1H-indol-3-yl)-1-naphthalenylmethanone]	None of the compounds at concentrations up to 30 μM activated GPR35	–
Cc1c(/C=N/N2CCCCC2)nn(-c2ccc(Cl)cc2Cl)c1-c1ccc(Cl)cc1 [PIMSR1, 5-(4-chlorophenyl)-1-(2,4-dichlorophenyl)-4-methyl-3-[(E)-piperidinoiminomethyl]-1H-pyrazole]	None of the compounds at concentrations up to 30 μM activated GPR35	–
Cc1c(/C=C/C2CCCCC2)nn(-c2ccc(Cl)cc2Cl)c1-c1ccc(Cl)cc1 [VCHSR1, 5-(4-chlorophenyl)-3-[(E)-2-cyclohexylethenyl]-1-(2,4-dichlorophenyl)-4-methyl-1H-pyrazole]	None of the compounds at concentrations up to 30 μM activated GPR35	–
Cc1c(C(=O)c2cccc3ccccc23)c2cccc3c2n1[C@H](CN1CCOCC1)CO3 [WIN55212-2, (R)-(+)-[2,3-dihydro-5-methyl-3-(4-morpholinylmethyl)pyrrolo[1,2,3-de)-1,4-benzoxazin-6-yl]-1-napthalenylmethanone]	None of the compounds at concentrations up to 30 μM activated GPR35	–
CCCCC/C=C\C/C=C\C/C=C\C/C=C\CCCC(=O)NCCO [anandamide]	None of the compounds at concentrations up to 30 μM activated GPR35	–
C=C(C)[C@@H]1CCC(C)=C[C@H]1c1c(O)cc(CCCCC)cc1O [cannabidiol]	None of the compounds at concentrations up to 30 μM activated GPR35	–
CCCCCc1cc(O)c2c(c1)OC(C)(C)c1ccc(C)cc1-2 [cannabinol]	None of the compounds at concentrations up to 30 μM activated GPR35	–
CCCCCc1cc(O)c2c(c1)OC(C)(C)[C@@H]1CCC(C)=C[C@@H]21 [delta-9-tetrahydrocannabinol]	None of the compounds at concentrations up to 30 μM activated GPR35	–
lysophosphatidic acid	None of the compounds at concentrations up to 30 μM activated GPR35	–
lysophosphatidylinositol	None of the compounds at concentrations up to 30 μM activated GPR35	–
oxantel pamoate [Compound 2]	–	log EC50 of GPR35 internalization ([3]; On-Cell Western, log(EC50)): −7.772; EC50 ([3]; read-out: EC50 of GPR35 internalization, On-Cell Western, corresponds to the log EC50): 0.017 µM; EC50 [1, 4]: 0.091 µM
pyrantel tartrate	–	activity in GPR35 internalization assay, in words [3]: inactive
